Results published in ChEMBL document CHEMBL1141518, “Novel non-peptidic and small-sized BACE1 inhibitors” (Bioorg Med Chem Lett, 2008).
Activity calls are given as the source filed them. The calls are words filed in the database; no cut-off is given here.

Tests used:
Beta-secretase 1 [1] = target: T1, Beta-secretase 1 (Homo sapiens, UniProt P56817); test: Inhibition of human recombinant BACE1 at 2 uM by FRET assay
Beta-secretase 1 [2] = target: T1, Beta-secretase 1
Description: (§1) Inhibition of human recombinant BACE1 by FRET assay

Beta-secretase 1 [3] = target: T1, Beta-secretase 1; test: Inhibition of human recombinant BACE1 at 0.2 uM by FRET assay
Beta-secretase 1 [4] = target: T1, Beta-secretase 1; remark: listed apart in the source
Description: as §1

T1 sequence (P56817 whole entry): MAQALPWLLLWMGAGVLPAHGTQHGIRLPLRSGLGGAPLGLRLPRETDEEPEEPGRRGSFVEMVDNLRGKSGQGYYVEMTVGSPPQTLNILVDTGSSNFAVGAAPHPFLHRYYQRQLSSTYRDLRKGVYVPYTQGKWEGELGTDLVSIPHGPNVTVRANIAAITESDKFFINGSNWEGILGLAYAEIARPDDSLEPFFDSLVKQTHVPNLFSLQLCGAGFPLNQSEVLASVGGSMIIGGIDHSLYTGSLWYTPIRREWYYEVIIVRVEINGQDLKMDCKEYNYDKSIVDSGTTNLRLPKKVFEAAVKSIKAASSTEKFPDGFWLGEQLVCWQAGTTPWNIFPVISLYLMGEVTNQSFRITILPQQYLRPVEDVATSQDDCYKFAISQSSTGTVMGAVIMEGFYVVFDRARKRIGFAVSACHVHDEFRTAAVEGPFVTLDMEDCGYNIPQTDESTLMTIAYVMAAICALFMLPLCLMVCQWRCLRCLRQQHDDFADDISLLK

Row | SMILES | inhibition (Beta-secretase 1 [1]) | further results
1 | CC(C)(NC(=O)c1cccc(C(=O)N[C@@H](Cc2ccccc2)[C@H](O)C(=O)Nc2cccc(-c3nn[nH]n3)c2)n1)c1ccccc1 | 69% | 
2 | CCCN(CCC)C(=O)c1cccc(C(=O)N[C@@H](Cc2ccccc2)[C@@H](O)C(=O)Nc2cccc(C(=O)O)c2)n1 |  | Activity (Beta-secretase 1 [2]): inactive
3 | O=C(N[C@@H](Cc1ccccc1)[C@H](O)C(=O)Nc1cccc(-c2nn[nH]n2)c1)c1cc(=O)cc(C(=O)N2COC[C@@H]2c2ccccc2)[nH]1 | 83% | inhibition (Beta-secretase 1 [3]): 36%
4 | CS(=O)(=O)Oc1cc(C(=O)N[C@@H](Cc2ccccc2)[C@H](O)C(=O)Nc2cccc(-c3nn[nH]n3)c2)nc(C(=O)N2COC[C@@H]2c2ccccc2)c1 | 96% | inhibition (Beta-secretase 1 [3]): 73%
5 | O=C(N[C@@H](Cc1ccccc1)[C@H](O)C(=O)Nc1cccc(-c2nn[nH]n2)c1)c1cccc(C(=O)N2COC[C@@H]2c2ccccc2)n1 | 93% | inhibition (Beta-secretase 1 [3]): 63%
6 | O=C(N[C@@H](Cc1ccccc1)[C@H](O)C(=O)Nc1cccc(-c2nnn[nH]2)c1)c1cc(O)cc(C(=O)N2COC[C@@H]2c2ccccc2)n1 |  | IC50 (Beta-secretase 1 [4]): 360 nM
7 | O=C(N[C@@H](Cc1ccccc1)[C@H](O)C(=O)Nc1cccc(-c2nnn[nH]2)c1)c1cccc(C(=O)N2COC[C@@H]2c2ccccc2)n1 |  | IC50 (Beta-secretase 1 [4]): 140 nM
8 | CC(C)(NC(=O)c1cc(OS(C)(=O)=O)cc(C(=O)N[C@@H](Cc2ccccc2)[C@H](O)C(=O)Nc2cccc(-c3nn[nH]n3)c2)n1)c1ccccc1 | 84% | 
9 | CS(=O)(=O)Oc1cc(C(=O)N[C@@H](Cc2ccccc2)[C@H](O)C(=O)Nc2cccc(-c3nnn[nH]3)c2)nc(C(=O)N2COC[C@@H]2c2ccccc2)c1 |  | IC50 (Beta-secretase 1 [4]): 96 nM
10 | CC(C)(NC(=O)c1cc(=O)cc(C(=O)N[C@@H](Cc2ccccc2)[C@H](O)C(=O)Nc2cccc(-c3nn[nH]n3)c2)[nH]1)c1ccccc1 | 65% | 

Now from value to compound, other results behind:

Row | inhibition (Beta-secretase 1 [1]) | SMILES | further results
11 | 70% | C[C@@H](NC(=O)c1cc(=O)cc(C(=O)N[C@@H](Cc2ccccc2)[C@H](O)C(=O)Nc2cccc(-c3nn[nH]n3)c2)o1)c1ccccc1 | 
12 | 66% | C[C@@H](NC(=O)c1cccc(C(=O)N[C@@H](Cc2ccccc2)[C@H](O)C(=O)Nc2cccc(-c3nn[nH]n3)c2)n1)c1ccccc1 | 
13 | 51% | C[C@@H](NC(=O)c1cc(=O)cc(C(=O)N[C@@H](Cc2ccccc2)[C@H](O)C(=O)Nc2cccc(-c3nn[nH]n3)c2)[nH]1)c1ccccc1 | 
14 | 81% | CC(C)(NC(=O)c1cc(=O)cc(C(=O)N[C@@H](Cc2ccccc2)[C@H](O)C(=O)Nc2cccc(-c3nn[nH]n3)c2)o1)c1ccccc1 | 
15 | 96% | O=C(N[C@@H](Cc1ccccc1)[C@H](O)C(=O)Nc1cccc(-c2nn[nH]n2)c1)c1cc(=O)cc(C(=O)N2COC[C@@H]2c2ccccc2)o1 | IC50 (Beta-secretase 1 [4]): 50 nM; inhibition (Beta-secretase 1 [3]): 78%
